Source: patent publication US11845763B2, “Tricarbonyl complexes of transition metals with benzo-heterocyclic derivatives of the cyclopentadienyl anion” (National Centre For Scientific Research “Demokritos”, priority 2018, dated 2023)
Read-outs that look alike come from different tables or passages of the source.

Columns and labels:
[1] = cited from earlier work
[2] = molecular target: Aβ aggregates; conditions: literature value [45]; read-out: binding affinity to Aβ aggregates (Ki); cited from earlier work
[3] = Stability of 99mTc complexes under excess histidine or cysteine (HPLC); assay type: physicochemical; conditions: percentage of intact complex by HPLC, PBS pH 7.4, 37° C.; for Stability, Cysteine, 1 h / Stability, Cysteine, 3 h / Stability, Cysteine, 6 h: excess cysteine; for Stability, Histidine, 1 h / Stability, Histidine, 3 h / Stability, Histidine, 6 h: excess histidine
Protocol: The stability of ^99mTc-2-^99mTc-4 complexes was assessed in the presence of excess histidine and cysteine which are capable of acting as tridentate substituents replacing the ligands of the complexes. Each of the HPLC-purified ^99mTc complex (0.5 mL, approx. 10 MBq) was mixed with a solution of histidine or cysteine (2 mM) in 0.1 M PBS, pH 7.4 (0.5 mL). The mixture was incubated at 37° C. and analyzed by HPLC after 1, 3, and 6 h. The recording of the percentage of the intact complexes in the presence of the antagonists at each time point of the study allows the estimation of the stability of the labeled ^99mTc complexes.

[4] = Blood-brain barrier permeability by biodistribution studies in mice; assay type: in vivo, Swiss Albino mice; conditions: for Biodistribution of radioactivity, Blood / Biodistribution of radioactivity, Brain / Biodistribution of radioactivity, Heart / Biodistribution of radioactivity, Intestines / Biodistribution of radioactivity, Kidneys / Biodistribution of radioactivity, Liver / Biodistribution of radioactivity, Lungs / Biodistribution of radioactivity, Muscle / Biodistribution of radioactivity, Pancreas / Biodistribution of radioactivity, Spleen / Biodistribution of radioactivity, Stomach: tail vein injection, healthy Swiss Albino mice; for percentage of radioactivity in the brain: 2 min, Swiss Albino mice
Protocol: This evaluation was conducted through biodistribution studies in healthy Swiss Albino mice (5 weeks old, 20-30 g) that were obtained from the breeding facilities of the Institute of Biosciences & Applications, NCSR “Demokritos”. During these experiments we evaluate the distribution of radioactivity in the tissues of the animal after radiolabeled compound administration. For the credibility of the in vivo distribution data, three independent experiments are required for each evaluation, where in each experiment the animal population ranges between 9 and 12. The experiments of synthesis, labelling and biodistribution were carried out in the Laboratory of “Radiopharmaceuticals”, NCSR “Demokritos” that has the required infrastructure to ensure safe conduct of experiments using radioactivity. All the biodistribution studies were carried out in compliance with the Presidential Decree 56/2013 (published in the Official Government Gazette of Greece 106 A/30-4-2013) that has transposed the EU Directive 2010/63 on the protection of animals used for scientific purposes.
Three groups of mice (three animals per group) were injected in the tail vein with HPLC-purified ^99mTc complexes (1-2 μCi in 0.1 mL, ethanol/saline 1:9). The mice were sacrificed at various time points (2, 15, 90 min) post injection (p.i.). The organs of interest were excised, weighed, and the radioactivity counted in an automatic γ-counter. The stomach and intestines were not emptied of food contents prior to radioactivity measurements. The calculation for blood and muscle was based upon measured activity, sample weight, and body composition data, considering that blood comprises 7% and muscle 43% of body weight. The percentage of injected dose per organ (% ID/organ) was calculated by comparison of sample radioactivity to standard solutions that contained 10% of the injected dose. The percentage of injected dose per gram (% ID/g) was calculated by dividing the % ID/organ by the weight of the organ or tissue.
where cpm reference=(cpm 10% standard×10)−cpm tail.

[5] = molecular target: Aβ42 fibrillar aggregates (Homo sapiens, UniProt P05067); experiment: Competitive binding assay using Aβ42 fibrillar aggregates; conditions: homologous competition, Re complex vs corresponding 99mTc complex, 50 nM Aβ42 fibrillar aggregates, 3 h room temperature
Sequence of Aβ42 fibrillar aggregates (P05067 672-713 limits assumed): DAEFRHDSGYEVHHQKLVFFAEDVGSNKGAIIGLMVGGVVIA
Protocol: Competitive binding assay studies were performed in 1 mL solutions in PBS in 12 mm×75 mm borosilicate glass tubes according to a published procedure with modifications. […] The solutions were incubated for 3 h at room temperature and the bound and free radioactivity were separated by Millex-GV Syringe Filter Unit, 0.22 μm filters followed by 2×2 mL washes with PBS at room temperature. Filters containing the bound ^99mTc complexes were measured for radioactivity in a γ-counter. Binding studies were repeated in triplicate. The data were analyzed using GraphPad Prism software with the IC50 value calculated using a one-site competitive binding […] regression. The Ki value was calculated using the Cheng-Prousoff equation [44]: […]
In the case of homologous competitive binding we assume that the hot and cold ligand have identical affinities so that Kd and Ki have the same value. Thus the above equation is being transformed into: Ki=IC50−[Radioligand]

[6] = Lipophilicity, partition coefficient n-octanol/PBS; assay type: physicochemical
Protocol: The lipophilicity of ^99mTc-2-^99mTc-4 complexes was determined by the estimation of the partition coefficient in a biphasic system of n-octanol and water (PBS). The partition coefficient was expressed as the logarithm of the ratio of the counts per gram from n-octanol versus those from PBS (log Poct/water), where P is the ratio. The measurement was done in triplicate and repeated three times.

[7] = Brain uptake of literature 99mTc agents (cited); assay type: in vivo; conditions: 2 min post administration, converted from % ID/organ

C/C(=N\[O-])[C@@H](C)[N-]CC(C)(C)C[N-][C@H](C)/C(C)=N/O.[O]=[99Tc+3] (racemic) [^99mTc-HMPAO, 99mTc-hexamethylpropyleneamineoxime]
brain penetration ([1]; 60 min post administration [39]): 5 % ID/gr

CN(C)c1ccc(-c2cn3cc(I)ccc3n2)cc1 [[^123I]IMPY]
Ki [2]: 12.5 ± 2.8 nM

[99Tc+].[C-]#[O+].[C-]#[O+].[C-]#[O+].c1ccc2[nH]c(-[c-]3cccc3)nc2c1 [^99mTc-3]
Stability, Cysteine, 1 h [3]: 98 ± 1
Stability, Cysteine, 3 h [3]: 98 ± 1
Stability, Cysteine, 6 h [3]: 97 ± 2
Stability, Histidine, 1 h [3]: 98 ± 1
Stability, Histidine, 3 h [3]: 98 ± 1
Stability, Histidine, 6 h [3]: 97 ± 1
Biodistribution of radioactivity, Blood ([4]; 2 min p.i.): 3.38 ± 0.67 % ID/gr
Biodistribution of radioactivity, Blood ([4]; 15 min p.i.): 1.86 ± 0.13 % ID/gr
Biodistribution of radioactivity, Blood ([4]; 90 min p.i.): 0.48 ± 0.12 % ID/gr
percentage of radioactivity in the brain [4]: 3.99±0.60 % ID/g
Biodistribution of radioactivity, Brain ([4]; 2 min p.i.): 3.99 ± 0.60 % ID/gr
Biodistribution of radioactivity, Brain ([4]; 15 min p.i.): 0.75 ± 0.11 % ID/gr
Biodistribution of radioactivity, Brain ([4]; 90 min p.i.): 0.04 ± 0.01 % ID/gr
Biodistribution of radioactivity, Heart ([4]; 2 min p.i.): 7.53 ± 1.28 % ID/gr
Biodistribution of radioactivity, Heart ([4]; 15 min p.i.): 1.95 ± 0.26 % ID/gr
Biodistribution of radioactivity, Heart ([4]; 90 min p.i.): 0.22 ± 0.05 % ID/gr
Biodistribution of radioactivity, Intestines ([4]; 2 min p.i.): 3.06 ± 0.08 % ID/gr
Biodistribution of radioactivity, Intestines ([4]; 15 min p.i.): 14.80 ± 0.25 % ID/gr
Biodistribution of radioactivity, Intestines ([4]; 90 min p.i.): 23.94 ± 4.27 % ID/gr
Biodistribution of radioactivity, Kidneys ([4]; 2 min p.i.): 9.70 ± 0.92 % ID/gr
Biodistribution of radioactivity, Kidneys ([4]; 15 min p.i.): 5.04 ± 0.53 % ID/gr
Biodistribution of radioactivity, Kidneys ([4]; 90 min p.i.): 1.57 ± 0.20 % ID/gr
Biodistribution of radioactivity, Liver ([4]; 2 min p.i.): 13.97 ± 2.13 % ID/gr
Biodistribution of radioactivity, Liver ([4]; 15 min p.i.): 30.66 ± 3.96 % ID/gr
Biodistribution of radioactivity, Liver ([4]; 90 min p.i.): 18.08 ± 1.34 % ID/gr
Biodistribution of radioactivity, Lungs ([4]; 2 min p.i.): 7.09 ± 0.38 % ID/gr
Biodistribution of radioactivity, Lungs ([4]; 15 min p.i.): 2.44 ± 0.39 % ID/gr
Biodistribution of radioactivity, Lungs ([4]; 90 min p.i.): 0.45 ± 0.13 % ID/gr
Biodistribution of radioactivity, Muscle ([4]; 2 min p.i.): 5.23 ± 0.79 % ID/gr
Biodistribution of radioactivity, Muscle ([4]; 15 min p.i.): 1.50 ± 0.19 % ID/gr
Biodistribution of radioactivity, Muscle ([4]; 90 min p.i.): 0.15 ± 0.03 % ID/gr
Biodistribution of radioactivity, Pancreas ([4]; 2 min p.i.): 5.99 ± 0.62 % ID/gr
Biodistribution of radioactivity, Pancreas ([4]; 15 min p.i.): 1.96 ± 0.25 % ID/gr
Biodistribution of radioactivity, Pancreas ([4]; 90 min p.i.): 0.21 ± 0.02 % ID/gr
Biodistribution of radioactivity, Spleen ([4]; 2 min p.i.): 2.63 ± 0.40 % ID/gr
Biodistribution of radioactivity, Spleen ([4]; 15 min p.i.): 1.01 ± 0.09 % ID/gr
Biodistribution of radioactivity, Spleen ([4]; 90 min p.i.): 0.17 ± 0.03 % ID/gr
Biodistribution of radioactivity, Stomach ([4]; 2 min p.i.): 1.63 ± 0.44 % ID/gr
Biodistribution of radioactivity, Stomach ([4]; 15 min p.i.): 3.17 ± 0.43 % ID/gr
Biodistribution of radioactivity, Stomach ([4]; 90 min p.i.): 4.63 ± 0.56 % ID/gr
Ki [5]: 7.04 ± 2.85 nM
Lipophilicity logPoct/water [6]: 1.84 ± 0.17

Cn1c(-[c-]2cccc2)nc2ccccc21.[99Tc+].[C-]#[O+].[C-]#[O+].[C-]#[O+] [^99mTc-4]
Stability, Cysteine, 1 h [3]: 98 ± 1
Stability, Cysteine, 3 h [3]: 95 ± 2
Stability, Cysteine, 6 h [3]: 85 ± 1
Stability, Histidine, 1 h [3]: 98 ± 1
Stability, Histidine, 3 h [3]: 96 ± 1
Stability, Histidine, 6 h [3]: 95 ± 1
percentage of radioactivity in the brain [4]: 6.14±1.00 % ID/g
Ki [5]: 5.74 ± 2.9 nM
Lipophilicity logPoct/water [6]: 1.50 ± 0.12

CCOC(=O)[C@H](C[S-])[N-]CCN[C@@H](C[S-])C(=O)OCC.[O-2].[Tc] [^99mTc-ECD, 99mTc-labelled ethylene dicysteine diethyl ester]
brain penetration ([1]; 2 min post administration [40]): 1.32 % ID/organ
brain penetration [7]: approximately 4.4 % ID/gr
